{
  "source": "patent US20040097473A1",
  "about": "“Use of p38 inhibitors for the treatment of smoke inhalation” (priority 2003, published 2004)",
  "key": {"[1]": {"tested_on": "Citric Acid-Induced Cough in Guinea Pigs", "assay": "Citric Acid Induced Cough Model (direct antitussive activity)", "assay_type": "in vivo, guinea pig", "conditions": "conscious guinea pigs, inhaled citric acid (0.4% for 1 minute) cough challenge; FIG. 4", "description": "The directed antitussive activity of the compound in question if first assessed, by a 10 to 30 minute pretreatment period by intraperitoneal injection or a 1 hour pretreatment period for oral administration. The animals (guinea pigs) are then subjected to an inhaled citric acid-induced cough challenge. Inhalation of citric acid (CA; 0.4% for 1 minute) induced 11 to 15 coughs during the exposure and 12-minute monitoring period in conscious guinea pigs."}, "[2]": {"tested_on": "Antigen-Induced Hypertussive Activity to Citric Acid in Guinea Pigs", "assay": "Antigen-Induced Hypertussive Model", "assay_type": "in vivo, guinea pig", "conditions": "sensitized guinea pigs exposed to inhaled ovalbumin", "description": "The effects of the compound are then assessed on the hypertussive response that occurs 72 hours post aerosol exposure to antigen or LTD4 exposure. Treatment of the animals occurs with the drug prior and/or after antigen or LTD4 challenge, but not on the day of citric acid challenge. Inhalation of citric acid (CA; 0.4% for 1 minute) induced 11 to 15 coughs during the exposure and 12-minute monitoring period in conscious guinea pigs."}, "[3]": {"tested_on": "LTD4-induced hypertussive response in the Guinea Pig", "assay": "LTD4-Induced Hypertussive Model", "assay_type": "in vivo", "conditions": "oral 30 mg/kg b.i.d.; LTD4 inhalation 10 ug/ml for 1 minute; 72 hours after exposure", "description": "The effects of the compound are then assessed on the hypertussive response that occurs 72 hours post aerosol exposure to antigen or LTD4 exposure. Treatment of the animals occurs with the drug prior and/or after antigen or LTD4 challenge, but not on the day of citric acid challenge. Similarly, inhalation of LTD4 (10 ug/ml for 1 minute) increased cough incidence and airway esoinophiles 72 hours after exposure. Oral treatment with Compound I (30 mg/kg, b.i.d.), blocked the LTD4-induced esoinophilia, and normalized the cough response, as shown in FIG. 5 herein."}},
  "data": [
    {"compound": "COc1nccc(-c2c(-c3ccc(F)cc3)ncn2[C@H]2CC[C@H](O)CC2)n1", "note": "[Compound I, trans-1-(4-Hydroxycyclohexyl)-4-(4-fluorophenyl)-5-[(2-methoxy)pyrimidin-4-yl]imidazole]", "values": [
      {"measurement": "direct antitussive effect", "setting": "[1]", "result": "no direct antitussive effect"},
      {"measurement": "airway eosinophilia", "setting": "[2]; bronchoalveolar lavage", "result": "reduce airway eosinophilia"},
      {"measurement": "hypertussive state (citric acid-induced cough incidence)", "setting": "[2]; citric acid challenge 72 hours post antigen", "result": "normalizes the hypertussive state"},
      {"measurement": "LTD4-induced eosinophilia", "setting": "[3]", "result": "blocked"},
      {"measurement": "cough response", "setting": "[3]", "result": "normalized"}
    ]}
  ]
}
